Measured values published in patent US20220218707A1, “USE OF COMPOSITION OF IMATINIB OR DERIVATIVE THEREOF IN PREPARATION OF DRUG FOR PREVENTING, TREATING, AND CONTROLLING ADDICTION RELAPSE” (Wuhan University, priority 2019, published 2022).
Where a name gives a salt, the structure may show the parent alone. Read-outs that look alike come from different tables or passages of the source.

Assays:
[1] = biological target: T1, c-Kit (Rattus norvegicus, UniProt F7EWK5); details: acute nicotine 0.5 mg/kg s.c.; not in other brain regions
T1 sequence (F7EWK5 26-978): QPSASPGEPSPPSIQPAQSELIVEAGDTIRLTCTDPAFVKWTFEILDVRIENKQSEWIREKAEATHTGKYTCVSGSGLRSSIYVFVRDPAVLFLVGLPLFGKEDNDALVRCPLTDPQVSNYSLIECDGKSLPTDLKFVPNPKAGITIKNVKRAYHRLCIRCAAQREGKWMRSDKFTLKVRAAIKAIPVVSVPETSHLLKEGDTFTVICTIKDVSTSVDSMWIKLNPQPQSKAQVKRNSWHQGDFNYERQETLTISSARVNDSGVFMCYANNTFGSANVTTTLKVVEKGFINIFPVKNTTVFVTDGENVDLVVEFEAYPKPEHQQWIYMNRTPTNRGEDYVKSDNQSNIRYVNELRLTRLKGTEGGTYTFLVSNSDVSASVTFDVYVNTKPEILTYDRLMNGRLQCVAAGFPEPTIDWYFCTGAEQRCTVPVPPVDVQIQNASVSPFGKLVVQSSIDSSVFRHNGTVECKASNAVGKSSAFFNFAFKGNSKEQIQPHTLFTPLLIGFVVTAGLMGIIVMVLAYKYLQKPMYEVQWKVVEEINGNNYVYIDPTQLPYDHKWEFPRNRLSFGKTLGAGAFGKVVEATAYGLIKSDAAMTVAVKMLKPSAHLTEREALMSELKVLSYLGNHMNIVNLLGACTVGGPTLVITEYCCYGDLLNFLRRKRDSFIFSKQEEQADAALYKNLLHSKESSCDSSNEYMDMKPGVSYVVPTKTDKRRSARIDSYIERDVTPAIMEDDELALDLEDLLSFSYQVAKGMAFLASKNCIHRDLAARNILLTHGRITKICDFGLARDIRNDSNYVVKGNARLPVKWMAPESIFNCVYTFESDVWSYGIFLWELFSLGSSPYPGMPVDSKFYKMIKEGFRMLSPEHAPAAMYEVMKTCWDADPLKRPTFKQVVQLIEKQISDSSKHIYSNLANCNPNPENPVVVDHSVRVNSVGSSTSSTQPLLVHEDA

[2] = test system: SD rats
[3] = test system: SD rats; remark: listed apart in the source
[4] = test system: SD rats; details: imatinib mesylate 1, 5, 10, 20, or 30 mg/kg i.p.
[5] = test system: SD rats; details: imatinib mesylate 1, 5, 10, 20, and 30 mg/kg i.p.
[6] = test system: SD rats; remark: listed apart in the source
[7] = test system: SD rats; remark: listed apart in the source
Text: Groups: A total of 14 groups (n=10) were included.
The rest process was the same as that in Example 3.

[8] = test system: SD rats; details: for drug-seeking behavior and relapse after cocaine addiction: imatinib mesylate 20 and 30 mg/kg
[9] = Naloxone-precipitated withdrawal symptoms after morphine-induced CPP (jump times, body weight); details: imatinib mesylate 15, 30, and 45 mg/kg with morphine 5 mg/kg, naloxone 2 mg/kg s.c.; combination or compound preparation
[10] = test system: SD rats; assay: Morphine sensitization model (spontaneous activity); type: in vivo
[11] = test system: SD rats; assay: Nicotine withdrawal symptoms (spontaneous activity); type: in vivo
Text: Test instrument: Conditional place preference (CPP) test apparatus (the same as that in Example 19); and spontaneous activity detecting apparatus (developed by the Institute of Chinese Materia Medica, China Academy of Chinese Medical Sciences). The test was automatically controlled by a computer. The apparatus includes four spontaneous activity observation chamber, a video synthesizer, a video pattern sampling card, and analysis software. The system performs video tracking of the rat activity and automatically records the rat activity track and activity times. The spontaneous activity evaluation index is the total activity times in a certain period of time (such as 60 min), and an increase in the total activity times indicates an increase in spontaneous activity. […] In addition, a physiological saline+physiological saline group without nicotine treatment was used as the control group. […] After 60 min, a spontaneous activity detecting apparatus was used to detect the spontaneous activities.

[12] = test system: SD rats; assay: Ethanol sensitization model; type: in vivo; details: imatinib mesylate 15, 20, or 30 mg/kg
[13] = test system: SD rats; details: direct administration; any dose of imatinib mesylate
[14] = test system: SD rats; remark: listed apart in the source
[15] = test system: SD rats; assay: Development of high-sugar and high-fat food-induced CPP; type: in vivo
[16] = test system: SD rats; details: for morphine tolerance and heat pain threshold in CFA rats: day 6 after model establishment
[17] = test system: SD rats; remark: listed apart in the source
[18] = biological target: T1, c-Kit; details: acute ethanol administration
[19] = biological target: T1, c-Kit; details: acute morphine 10 mg/kg s.c.; not in other brain regions
[20] = imatinib mesylate 1, 5, and 10 mg/kg, ethanol 0.75 g/kg for training CPP
[21] = imatinib mesylate 1 and 5 mg/kg, ethanol 0.5 g/kg for training CPP
[22] = imatinib mesylate 10, 15, 20, and 30 mg/kg, ethanol 0.5 g/kg for training CPP
[23] = imatinib mesylate 15, 20, and 30 mg/kg, ethanol 0.75 g/kg for training CPP

CN1CCCC1c1cccnc1 (centres unmarked) [nicotine]
activation of c-kit receptor and downstream signaling molecules in neurons in nucleus accumbens [1]: specifically activated

Cc1ccc(NC(=O)c2ccc(CN3CCN(C)CC3)cc2)cc1Nc1nccc(-c2cccnc2)n1 [imatinib mesylate]
CPP (drug-seeking behavior) after morphine addiction ([2]; imatinib mesylate 1, 5, and 10 mg/kg i.p., morphine 10 mg/kg for training CPP): no obvious effect | CPP (drug-seeking behavior) after morphine addiction ([2]; imatinib mesylate 1 and 5 mg/kg i.p., morphine 5 mg/kg for training CPP): no obvious effect | CPP (drug-seeking behavior) after morphine addiction ([2]; imatinib mesylate 10, 20, and 30 mg/kg i.p., morphine 5 mg/kg for training CPP): can significantly relieve CPP and prevent it from being primed | CPP (drug-seeking behavior) after morphine addiction ([2]; imatinib mesylate 20 and 30 mg/kg i.p., morphine 10 mg/kg for training CPP): can significantly relieve CPP and prevent it from being primed | priming with high-sugar and high-fat food after 1 week ([3]; direct administration, all doses of imatinib mesylate): cannot prevent the rats from being primed | food-seeking behavior (CPP) ([3]; imatinib mesylate 10, 20, and 30 mg/kg, substance cue, environmental cue or direct administration): can inhibit the food-seeking behavior | hind paw licking time, imatinib mesylate+physiological saline compared with physiological saline+physiological saline [4]: no obvious changes | hind paw licking time, imatinib mesylate+morphine compared with morphine+physiological saline ([4]; morphine 10 mg/kg s.c.): no obvious changes | HPT, imatinib mesylate+physiological saline compared with physiological saline+physiological saline [5]: no obvious change | heat pain threshold, imatinib mesylate+morphine compared with morphine+physiological saline ([5]; morphine 10 mg/kg s.c.): no obvious change | morphine tolerance (heat pain threshold) ([6]; 1, 5, and 10 mg/kg i.p., morphine 10 mg/kg s.c.): do not have this inhibitory effect | morphine tolerance (heat pain threshold) ([6]; 20 and 30 mg/kg i.p., morphine 10 mg/kg s.c.): can prevent the development of CPP | morphine tolerance (heat pain threshold) ([6]; 20 and 30 mg/kg i.p., morphine 10 mg/kg s.c., listed as Imatinib sulfonate): can significantly reduce the expression of morphine-induced tolerance | minimum dose of imatinib mesylate preventing morphine tolerance ([6]; dose ratio to morphine 2:1 or greater): 10 mg/kg | morphine tolerance (heat pain threshold) ([6]; imatinib mesylate 10, 20, and 30 mg/kg, tolerance induced by 5 mg/kg morphine): can prevent the development of morphine tolerance | treatment and prevention of morphine tolerance ([6]; low dose of 5 mg/kg, rats): can be used in the treatment and prevention of morphine tolerance in rats | CPP (drug-seeking behavior) after ethanol addiction [7, 20]: no obvious effect | CPP (drug-seeking behavior) after ethanol addiction [7, 21]: no obvious effect | CPP (drug-seeking behavior) after ethanol addiction [7, 22]: can significantly relieve CPP and prevent it from being primed | CPP (drug-seeking behavior) after ethanol addiction [7, 23]: can significantly relieve CPP and prevent it from being primed | priming (relapse) after cocaine addiction ([8]; direct administration of imatinib mesylate 20 and 30 mg/kg): the rats are still primed | drug-seeking behavior and relapse after cocaine addiction ([8]; unconditioned stimulus cocaine 3 mg/kg): can prevent the drug-seeking behavior and relapse | drug-seeking behavior and relapse after cocaine addiction ([8]; unconditioned stimulus cocaine 4 mg/kg): can only inhibit the drug-seeking behavior, and cannot prevent relapse | morphine withdrawal symptoms (jump times, changes in body weight) [9]: can alleviate the withdrawal symptoms | expression of morphine sensitization ([10]; imatinib mesylate 30 mg/kg i.p. on day 11 before morphine 5 mg/kg challenge): the expression of morphine sensitization in rats is inhibited | development of morphine sensitization ([10]; imatinib mesylate 30 mg/kg with morphine 10 mg/kg for 5 consecutive days): the development of morphine sensitization in rats is inhibited | nicotine withdrawal symptoms (spontaneous activities) ([11]; imatinib mesylate 10, 20, and 30 mg/kg, addiction trained by 0.25 mg/kg of nicotine): can differently alleviate the withdrawal symptoms | nicotine withdrawal symptoms (spontaneous activities) ([11]; imatinib mesylate 20 and 30 mg/kg, addiction trained by 0.5 mg/kg of nicotine): can alleviate the withdrawal symptoms | development of ethanol sensitization ([12]; ethanol 0.75 g/kg for 5 consecutive days): the development of ethanol sensitization in rats is inhibited | expression of ethanol sensitization ([12]; ethanol challenge on day 11): the expression of ethanol sensitization in rats is inhibited | gambling behavior (choice) [13]: no significant effect | priming (relapse) after challenge with a small dose of ethanol ([14]; direct administration of imatinib mesylate): are all primed | CPP after ethanol addiction, all treatment groups ([14]; imatinib mesylate 15 and 30 mg/kg, ethanol 0.75 g/kg for training CPP): can significantly reduce the CPP | drug-seeking behavior and relapse after ethanol addiction ([14]; unconditioned stimulus ethanol 0.5 g/kg, imatinib mesylate 20 and 30 mg/kg): can only inhibit the drug-seeking behavior, and cannot prevent relapse | development of addiction to high-sugar and high-fat food (CPP) ([15]; imatinib mesylate 1, 5, and 10 mg/kg i.p.): no significant effect on the development of addiction to high-sugar and high-fat food | development of addiction to high-sugar and high-fat food (CPP) ([15]; imatinib mesylate 20 and 30 mg/kg i.p.): can significantly inhibit the development of addiction to high-sugar and high-fat food | morphine tolerance and heat pain threshold in CFA rats ([16]; imatinib mesylate 1, 5, and 10 mg/kg): have no this effect | morphine tolerance and heat pain threshold in CFA rats ([16]; imatinib mesylate 20 and 30 mg/kg): can significantly prevent the development of morphine tolerance | heat pain threshold, imatinib mesylate+morphine compared with morphine+physiological saline ([16]; days 4 and 5 after model establishment, morphine 10 mg/kg s.c.): no obvious change | development of ethanol-induced CPP [17, 20]: no significant effect on the development of CPP | development of ethanol-induced CPP [17, 21]: no significant effect on the development of CPP | development of ethanol-induced CPP [17, 22]: can significantly relieve CPP | development of ethanol-induced CPP [17, 23]: can significantly relieve CPP

CCO [ethanol]
activation of c-kit receptor in neurons in nucleus accumbens [18]: specifically activated

CNC1(C)C2CCC(C2)C1(C)C (centres unmarked) [mecamylamine]
spontaneous activities of rats with nicotine addiction ([11]; mecamylamine 0.5 mg/kg, withdrawal symptoms aroused): the spontaneous activities decreases significantly

CN1CC[C@]23c4c5ccc(O)c4O[C@H]2[C@@H](O)C=C[C@H]3[C@H]1C5 [morphine]
activation of c-kit receptor and downstream signaling molecules in neurons in nucleus accumbens [19]: specifically activated
